According to patent publication US20250115600A1, “COVALENT MODIFIERS OF AKT1 AND USES THEREOF” (Terremoto Biosciences, Inc., priority 2022, published 2025):

Tests used:
AKT1 WT [1] = biological target: T1, AKT1 WT (Homo sapiens (Human), UniProt P31749); assay: Dissociation rate by intact protein LCMS after ARQ092 chase; assay type: binding; conditions: compound 1.5 μM, 2 hours at 37° C., then ARQ092 50 μM
Description: (§1) AKT1 WT or AKT1 E17K (1 μM) were treated with a compound of Table 1 (1.5 μM) for 2 hours at 37° C., then ARQ092 (50 μM final concentration) was added to prevent aldehyde-containing compound rebinding after initial dissociation. At various timepoints, aliquots were removed and quenched with 5 mM NaBH4 for 5 min to capture the reversible imine through reductive amination. Reduction reactions were quenched by diluting the sample in equal volume acetonitrile+1% TFA, then analyzed by LCMS. Deconvoluted monoisotopic intensities of unmodified vs. compound-modified mass peaks were compared.
Target sequence in this assay (P31749 2-480): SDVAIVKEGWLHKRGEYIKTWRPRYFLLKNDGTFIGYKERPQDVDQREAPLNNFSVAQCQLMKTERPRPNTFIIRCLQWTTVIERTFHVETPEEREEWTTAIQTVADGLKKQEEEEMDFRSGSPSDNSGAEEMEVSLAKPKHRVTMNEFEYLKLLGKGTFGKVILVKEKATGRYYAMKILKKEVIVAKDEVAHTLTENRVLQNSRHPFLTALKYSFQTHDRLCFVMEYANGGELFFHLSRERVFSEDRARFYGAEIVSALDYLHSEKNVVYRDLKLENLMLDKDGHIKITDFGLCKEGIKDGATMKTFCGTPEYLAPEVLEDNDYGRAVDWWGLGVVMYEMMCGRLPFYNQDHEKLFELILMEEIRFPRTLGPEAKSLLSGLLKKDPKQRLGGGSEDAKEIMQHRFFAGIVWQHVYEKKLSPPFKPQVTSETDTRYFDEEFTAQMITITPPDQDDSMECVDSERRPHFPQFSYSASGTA

AKT1 WT [2] = biological target: T1, AKT1 WT; assay: Live cell target engagement (NanoBRET) in HEK293 cells; assay type: cell-based; conditions: HEK293, 2 hours at 37° C.
Target sequence in this assay (P31749 whole entry): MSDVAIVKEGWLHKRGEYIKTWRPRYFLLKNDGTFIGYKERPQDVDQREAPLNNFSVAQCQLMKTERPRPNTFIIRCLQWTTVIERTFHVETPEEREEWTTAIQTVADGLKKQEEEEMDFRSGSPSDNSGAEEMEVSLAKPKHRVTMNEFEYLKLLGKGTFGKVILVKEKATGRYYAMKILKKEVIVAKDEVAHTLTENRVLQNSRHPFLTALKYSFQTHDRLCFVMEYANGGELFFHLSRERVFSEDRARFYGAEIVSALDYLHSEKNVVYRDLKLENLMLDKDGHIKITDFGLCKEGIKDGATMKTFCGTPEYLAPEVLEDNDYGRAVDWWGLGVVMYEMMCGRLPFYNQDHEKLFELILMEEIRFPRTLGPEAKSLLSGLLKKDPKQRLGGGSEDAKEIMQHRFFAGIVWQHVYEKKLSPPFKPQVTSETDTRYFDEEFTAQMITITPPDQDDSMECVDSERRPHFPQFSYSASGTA

AKT1 WT [3] = biological target: T1, AKT1 WT; assay: Intact mass spectrometry, covalent complex formation and ARQ-092 competition; assay type: binding; conditions: protein 1 μM, compound 1.5 μM, 2 hrs at 37° C., NaBH4 reduction; for covalent complex formation with AKT1 WT protein: absence of competitor; for covalent complex formation with AKT1 WT protein in presence of competitor: with ARQ092 (50 μM)
Description: (§2) AKT1 WT or AKT1 E17K (1 μM) was treated with a compound from Table 1 (1.5 μM) for 2 hrs at 37° C., with and without ARQ092 (50 μM) competitor as a specificity control. Reversible imines were captured by reductive amination with 5 mM NaBH4 for 5 min. Reduction reactions were quenched by diluting the sample in equal volume acetonitrile+1% TFA, then analyzed by LCMS.
(§3) FIGS. 1 to 25 provide intact mass spectra for AKT1 WT protein and AKT1 E17K mutant protein after incubation with compounds of the present disclosure and subsequent borohydride reduction. […] Further, FIGS. 1 to 10, 12, and 14 to 25 each provide intact mass spectra following the incubation of an AKT1 protein with a compound of the present disclosure both in the absence of a competitor molecule (i.e., ARQ-092, a molecule known to bind to and inhibit the function of AKT1); and in the presence of a significant stoichiometric excess of a competitor molecule.
Target sequence in this assay (P31749 2-480): as the sequence (P31749 2-480) above

AKT1 E17K mutant protein = AKT1 E17K mutant protein (Homo sapiens (Human), UniProt P31749, E17K); assay: as above; assay type: binding; conditions: for selectivity of complex formation, AKT1 E17K versus AKT1 WT: comparison of the spectra without competitor; for covalent complex formation with AKT1 E17K mutant protein / covalent complex formation with AKT1 E17K mutant protein in presence of competitor: protein 1 μM, compound 1.5 μM, 2 hrs at 37° C., NaBH4 reduction; for covalent complex formation with AKT1 E17K mutant protein: absence of competitor; for covalent complex formation with AKT1 E17K mutant protein in presence of competitor: with ARQ092 (50 μM)
Description: as §2, §3

AKT1 E17K [4] = biological target: T2, AKT1 E17K (Homo sapiens (Human), UniProt P31749, E17K); assay: Live cell target engagement (NanoBRET) in HEK293 cells; assay type: cell-based; conditions: for IC50: HEK293, 2 hours at 37° C.
Target sequence in this assay (P31749 whole entry E17K): as the sequence (P31749 whole entry) above, with E17K counted along it

AKT2 = AKT2 (Homo sapiens (Human), UniProt P31751); assay: as above; assay type: cell-based; conditions: HEK293, 2 hours at 37° C.
AKT1 E17K [5] = biological target: T2, AKT1 E17K; assay: Dissociation rate by intact protein LCMS after ARQ092 chase; assay type: binding; conditions: for AKT1 E17K t1/2: compound 1.5 μM, 2 hours at 37° C., then ARQ092 50 μM; for Off-rate Selectivity E17K/WT: ratio of t1/2
Description: as §1
Target sequence in this assay (P31749 2-480 E17K): as the sequence (P31749 2-480) above, with E16K counted along it

Sequence of AKT2 (P31751 whole entry): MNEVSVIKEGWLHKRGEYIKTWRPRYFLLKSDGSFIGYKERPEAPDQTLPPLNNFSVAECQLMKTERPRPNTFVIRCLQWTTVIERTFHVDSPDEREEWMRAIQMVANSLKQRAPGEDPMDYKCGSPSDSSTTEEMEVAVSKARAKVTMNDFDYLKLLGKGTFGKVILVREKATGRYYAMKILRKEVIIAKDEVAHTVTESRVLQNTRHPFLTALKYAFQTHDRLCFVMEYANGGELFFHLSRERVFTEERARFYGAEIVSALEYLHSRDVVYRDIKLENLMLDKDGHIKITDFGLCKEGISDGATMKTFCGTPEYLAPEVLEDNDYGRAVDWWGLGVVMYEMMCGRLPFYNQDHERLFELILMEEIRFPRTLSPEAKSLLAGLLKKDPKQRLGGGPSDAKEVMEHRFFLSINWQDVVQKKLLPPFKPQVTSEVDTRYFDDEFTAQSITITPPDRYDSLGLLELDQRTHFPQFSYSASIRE
Sequence of AKT1 E17K mutant protein (P31749 2-480 E17K): as the sequence (P31749 2-480) above, with E16K counted along it

Compound	AKT1 (WT) t1/2 (AKT1 WT [1]) [min]	IC50 (AKT1 WT [2]) [µM]	covalent complex formation with AKT1 WT protein (AKT1 WT [3])	covalent complex formation with AKT1 WT protein in presence of competitor (AKT1 WT [3])	selectivity of complex formation, AKT1 E17K versus AKT1 WT (AKT1 E17K mutant protein)	covalent complex formation with AKT1 E17K mutant protein (AKT1 E17K mutant protein)	covalent complex formation with AKT1 E17K mutant protein in presence of competitor (AKT1 E17K mutant protein)	AKT1 E17K IC50: Selectivity vs AKT1 WT (AKT1 E17K [4])	AKT1 E17K IC50: Selectivity vs AKT2 (AKT1 E17K [4])	IC50 (AKT1 E17K [4]) [µM]	IC50 (AKT2) [µM]	AKT1 E17K t1/2 (AKT1 E17K [5]) [min]	Off-rate Selectivity E17K/WT (AKT1 E17K [5])
Cc1ccc2nc(-c3cccnc3N)n(-c3ccc(C4(NC(=O)Cc5ccc(C=O)c(O)c5F)CC4)cc3)c2n1 [Compound 139, N-(1-{4-[2-(2-aminopyridin-3-yl)-5-methylimidazo[4,5-b]pyridin-3-yl]phenyl}cyclopropyl)-2-(2-fluoro-4-formyl-3-hydroxyphenyl)acetamide]	47.8	< 0.1	presence of a covalent complex	Essentially no covalent complex formation	selective for complex formation with AKT1 E17K	significant presence of a covalent complex	lower level of covalent complex formation	1.7	20	< 0.1	0.1 to 0.5		
Nc1ncccc1-c1nc2ccc(-c3ccccc3)nc2n1-c1ccc(CNCCc2ccc(C=O)c(O)c2)cc1 [Compound 133, 4-(2-((4-(2-(2-aminopyridin-3-yl)-5-phenyl-3H-imidazo[4,5-b]pyridin-3-yl)benzyl)amino)ethyl)-2-hydroxybenzaldehyde]	22.7	< 0.1	a noticeable level of covalent complex was formed	essentially no covalent complex formation		a covalent complex between Compound 133 and AKT1 E17K mutant protein was observed	essentially no covalent complex formation	1.4	4.7	< 0.1	0.1 to 0.5	126	5.6
CC(=O)Nc1cc(CCNCc2ccc(-n3c(-c4cccnc4N)nc4ccc(-c5ccccc5)nc43)cc2)ccc1C=O [Compound 110, N-(5-(2-((4-(2-(2-aminopyridin-3-yl)-5-phenyl-3H-imidazo[4,5-b]pyridin-3-yl)benzyl)amino)ethyl)-2-formylphenyl)acetamide]	4.9	< 0.1	small presence of covalent complex	Essentially no covalent complex formation	selective for complex formation with AKT1 E17K	significant presence of a covalent complex	Essentially little to no covalent complex formation	1.2	5.3	< 0.1	< 0.1	43.2	8.8
Nc1ncccc1-c1nc2ccc(-c3ccccc3)nc2n1-c1ccc(C2(NC(=O)Cc3ccc(C=O)c(O)c3F)CC2)cc1 [Compound 31, N-(1-{4-[2-(2-aminopyridin-3-yl)-5-phenylimidazo[4,5-b]pyridin-3-yl]phenyl}cyclopropyl)-2-(2-fluoro-4-formyl-3-hydroxyphenyl)acetamide]	85.9	< 0.1	presence of a covalent complex	Essentially little to no covalent complex formation		significant presence of a covalent complex	Essentially little to no covalent complex formation	1.4	5.8	< 0.1	< 0.1	151	1.8
Nc1ncccc1-c1nc2ccc(-c3ccccc3)nc2n1-c1ccc(CNC(=O)Cc2ccc(C=O)c(O)c2)cc1 [Compound 132, N-(4-(2-(2-aminopyridin-3-yl)-5-phenyl-3H-imidazo[4,5-b]pyridin-3-yl)benzyl)-2-(4-formyl-3-hydroxyphenyl)acetamide]		< 0.1	presence of covalent complex	Essentially no covalent complex formation		presence of covalent complex	Essentially no covalent complex formation	3.2	23	< 0.1	0.1 to 0.5		
Nc1ncccc1-c1nc2ccc(-c3ccccc3)nc2n1-c1ccc(CNC(=O)C2(c3cnc(C=O)c(O)c3)CC2)cc1 [Compound 56, N-({4-[2-(2-aminopyridin-3-yl)-5-phenylimidazo[4,5-b]pyridin-3-yl]phenyl}methyl)-1-(6-formyl-5-hydroxypyridin-3-yl)cyclopropane-1-carboxamide]		> 0.5	presence of a covalent complex	Essentially no covalent complex formation		small presence of a covalent complex	Essentially no covalent complex formation	93	490	< 0.1	> 0.5		
Nc1ncccc1-c1nc2ccc(-c3ccccc3)nc2n1-c1ccc(CNC(=O)Cc2ccc(C=O)c(O)n2)cc1 [Compound 75, N-(4-(2-(2-aminopyridin-3-yl)-5-phenyl-3H-imidazo[4,5-b]pyridin-3-yl)benzyl)-2-(5-formyl-6-hydroxypyridin-2-yl)acetamide]		0.1 to 0.5	only peaks corresponding to unmodified WT/mutant protein			only peaks corresponding to unmodified WT/mutant protein		1.7	3.7	0.1 to 0.5	> 0.5		
Nc1ncccc1-c1nc2ccc(-c3ccccc3)nc2n1-c1ccc(CNC(=O)c2cc(F)c(O)c(C=O)c2)cc1 [Compound 53, N-({4-[2-(2-aminopyridin-3-yl)-5-phenylimidazo[4,5-b]pyridin-3-yl]phenyl}methyl)-3-fluoro-5-formyl-4-hydroxybenzamide]		< 0.1	only peaks corresponding to unmodified WT protein	only peaks corresponding to unmodified WT protein	selective for complex formation with AKT1 E17K	presence of a covalent complex	Essentially no covalent complex formation	2.7	48	< 0.1	0.1 to 0.5		
CC(=O)Nc1cc(CC(=O)NCc2ccc(-n3c(-c4cccnc4N)nc4cccnc43)cc2)ccc1C=O [Compound 91, 2-(3-acetamido-4-formylphenyl)-N-(4-(2-(2-aminopyridin-3-yl)-3H-imidazo[4,5-b]pyridin-3-yl)benzyl)acetamide]		0.1 to 0.5	presence of a covalent complex	Essentially no covalent complex formation		presence of a covalent complex	Essentially no covalent complex formation	5	120	< 0.1	> 0.5		
